Data from patent US20140187587A1, “SYNERGISTIC FUNGICIDAL MIXTURES FOR FUNGAL CONTROL IN CEREALS” (Dow Agrosciences LLC, priority 2012, published 2014).

Tests used:
[1] = tested on: Septoria tritici (SEPTTR); experiment: 1-day protectant (1DP) test of fungicide mixtures vs. leaf blotch of wheat; assay type: in vivo, Mycosphaerella graminicola; anamorph: Septoria tritici; settings: single active, wheat (Yuma) plants
Procedure: (§1) For the mixture studies with the compound of Formula I: Treatments consisted of fungicides, including the compound of Formula I and fluxapyroxad. Technical grades of materials were dissolved in acetone to make stock solutions, which were then used to perform 4-fold dilutions in acetone for each individual fungicide component or for the two-way mixture. Desired fungicide rates were obtained after mixing dilutions with 9 volumes of water containing 110 parts per million (ppm) Triton X-100. The fungicide solutions (20 milliliters (mL)) were applied to 12 pots of plants using an automated booth sprayer, which utilized two 6218-1/4 JAUPM spray nozzles operating at 20 pounds per square inch (psi) set at opposing angles to cover both leaf surfaces. All sprayed plants were allowed to air dry prior to further handling. Control plants were sprayed in the same manner with a solvent blank.
Evaluation of Curative and Protectant Activity of Fungicide Mixtures vs. Leaf Blotch of Wheat (Mycosphaerella graminicola; Anamorph: Septoria tritici; Bayer Code: SEPTTR).
Wheat plants (variety Yuma) were grown from seed in a greenhouse in plastic pots with a surface area of 27.5 square centimeters (cm^2) containing 50% mineral soil/50% soil-less Metro mix, with 8-12 seedlings per pot. The plants were utilized for testing when the first leaf was fully emerged, which typically occurred 7-8 days after planting. Test plants were inoculated with an aqueous spore suspension of Septoria tritici either (a) 3 days prior to fungicide treatments (3-day curative test, 3DC) or (b) 1 day after fungicide treatments (1-day protectant test, 1DP). After inoculation the plants were placed in a dew room from 1-3 days to allow for infection to occur. The plants were then placed in the greenhouse for symptom development to occur, which in the case of SEPTTR typically required 25-30 days.
(§2) When disease severity reached 50-100% on the control plants, infection levels were assessed on treated plants visually and scored on a scale of 0 to 100 percent. The percentage of disease control was then calculated using the ratio of disease on treated plants relative to control plants.
(§3) The Colby equation was used to determine the fungicidal effects expected from the mixtures. (See Colby, S. R. Calculation of the synergistic and antagonistic response of herbicide combinations. Weeds 1967, 15, 20-22.)
(§4) The following equation was used to calculate the expected activity of mixtures containing two active ingredients, A and B:
(§5) A=observed efficacy of active component A at the same concentration as used in the mixture;
(§6) B=observed efficacy of active component B at the same concentration as used in the mixture.

[2] = tested on: Puccinia recondita (PUCCRT); experiment: 3-day curative (3DC) test of fungicide mixtures vs. wheat brown rust; assay type: in vivo; settings: single active, wheat (Yuma) plants
Procedure: as §1
Evaluation of Curative Activity of Fungicide Mixtures vs. Wheat Brown Rust (Puccinia recondita; Bayer Code: PUCCRT).
Yuma wheat seedlings were grown as described above and inoculated with an aqueous spore suspension of Puccinia recondita 3 days prior to fungicide treatment (3DC). After inoculation, plants were placed in a dew room for 1 day to allow for infection to occur. The plants were then placed in the greenhouse for symptom development to occur, which in the case of PUCCRT typically required 7-10 days.
as §2, §3, §4, §5, §6

| SMILES | % DC Obs (percent disease control observed), SEPTTR 1DP ([1]; application rate 0.1 ppm) [%] | % DC Obs (percent disease control observed), SEPTTR 1DP ([1]; application rate 0.39 ppm) [%] | % DC Obs (percent disease control observed), SEPTTR 1DP ([1]; application rate 1.56 ppm) [%] | % DC Obs (percent disease control observed), SEPTTR 1DP ([1]; application rate 6.25 ppm) [%] | % DC Obs (percent disease control observed), PUCCRT 3DC ([2]; application rate 0.1 ppm) [%] | % DC Obs (percent disease control observed), PUCCRT 3DC ([2]; application rate 0.39 ppm) [%] | % DC Obs (percent disease control observed), PUCCRT 3DC ([2]; application rate 1.56 ppm) [%] | % DC Obs (percent disease control observed), PUCCRT 3DC ([2]; application rate 6.25 ppm) [%] |
| --- | --- | --- | --- | --- | --- | --- | --- | --- |
| COc1ccnc(C(=O)N[C@H]2COC(=O)[C@H](Cc3ccccc3)[C@@H](OC(=O)C(C)C)[C@H](C)OC2=O)c1OCOC(=O)C(C)C [Compound I, (3S,6S,7R,8R)-8-benzyl-3-(3-((isobutyryloxy)methoxy)-4-methoxypicolinamido)-6-methyl-4,9-dioxo-1,5-dioxonan-7-yl isobutyrate] | 0 | 0 | 2 | 93 | 2 | 0 | 12 | 98 |
| Cn1cc(C(=O)Nc2ccccc2-c2cc(F)c(F)c(F)c2)c(C(F)F)n1 [Fluxapyroxad, 3-(difluoromethyl)-1-methyl-N-(3′,4′,5′-trifluorobiphenyl-2-yl)pyrazole-4-carboxamide] | 0 | 0 | 0 | 94 | 0 | 0 | 86 | 100 |
